# Source: US6451854B1, “α-amino acid phenyl ester derivatives” (Akzo Nobel N.V., priority 1998, dated 2002)
# Structures can show the parent of a compound that is named as a salt.
# Assays:
# [1] = molecular target: GABAA receptors; experiment: inhibition of [35S]-TBPS binding to rat whole brain membranes; conditions: concentration required to inhibit 50% of [35S]-TBPS binding
# From the text: γ-Aminobutyric acid (GABA) is the major inhibitory neurotransmitter within the central nervous system and it is probable that compounds potentiating the effects of GABA at GABAA receptors will induce anaesthesia (S. A. Zimmerman, M. V. Jones and N. L. Harrison, J. Pharmacol. Exp. Therap. 1994, 270, 987-991; N. P. Franks and W. R. Lieb, Nature 1994, 367, 607-614). Indeed there is compelling evidence that many hypnotics exert their biological activity via modulation of GABAA receptors, including steroids, barbiturates, benzodiazepines and propofol (D. L. Tanelian, P. Kosek, I. Mody and M. B. Maclver, Anesthesiology 1993, 78, 757-776).
# The in vitro effect of the compounds of the invention at GABAA receptors was assessed through determination of their ability to inhibit [^35S]-TBPS ([^35S]-tert-butyl bicyclophosphorothionate) binding to rat whole brain membranes. The concentration of α-amino acid phenyl ester derivative required to inhibit 50% of binding of [^35S]-TBPS was determined. These in vitro experiments were carried out as described in detail by Anderson et al., J.Med.Chem. 1997, 40, 1668-1681.
# [2] = test system: mice; experiment: hypnotic activity: loss of righting reflex after intravenous administration in mice; format: in vivo; conditions: dose causing loss of righting reflex for minimum 30 seconds in 50% of mice, intravenous injection over 10 seconds; for ED50: Mus musculus, iv, read-out: HD50 (the source's name)
# Method: The hypnotic potency of the α-amino acid phenyl ester derivatives of the invention was determined upon their intravenous administration in mice. The dose required to cause a loss of righting reflex for a minimum period of 30 seconds in 50% of treated mice after intravenous injection over 10 seconds was determined. This dose is termed the HD50 (hypnotic dose50) and is expressed in μmol.kg^−1.
Molecule,IC50 [1] [µM],ED50 [2] [µmol/kg],HD50 [2]
"COCCN(CCOC)C(C(=O)Oc1c(OC)cccc1OC)C(C)C (racemic) [Example 7u, (±)-3-methyl-2-[N-bis(2-methoxyethyl)amino]butyric acid, 2,6-dimethoxyphenyl ester hydrochloride (1:1) salt]",100,27,–
"COCCN(CCOC)[C@H](C)C(=O)Oc1c(OC)cc(C)cc1OC [Example 7y, R-(+)-2-[N-bis(2-methoxyethyl)amino]propionic acid, 2,6-dimethoxy-4-methylphenyl ester hydrochloride (1:1) salt]",< 100,18,–
"CCC(C(=O)Oc1c(OC)cccc1OC)N(CCOC)CCOC (racemic) [Example 7c, (±)-2-[N-bis(2-methoxyethyl)amino]butyric acid, 2,6-dimethoxyphenyl ester hydrochloride (1:1) salt]",10,19,–
"CCOCCN(CCOCC)C(C)C(=O)Oc1c(OC)cccc1OC (single isomer, unassigned; (+)) [Example 7w, (+)-2-[N-bis(2-ethoxyethyl)amino]propionic acid, 2,6-dimethoxyphenyl ester hydrochloride (1:1) salt]",~100,–,35 µmol/kg
"CCC(C(=O)Oc1c(OC(C)C)cccc1OC(C)C)N(CCOC)CCOC (racemic) [Example 7o, (±)-2-[N-bis(2-methoxyethyl)amino]butyric acid, 2,6-di-(1-methyl)ethoxyphenyl ester hydrochloride (1:1) salt]",< 100,64,–
"COc1cccc(OC)c1OC(=O)C(C)N(C)CCc1ccccc1 (stereo not shown) [Example 7m, 2-[N-methylphenethylamino]propionic acid, 2,6-dimethoxyphenyl ester hydrochloride (1:1) salt]",59,38,–
"CCCCC(C(=O)Oc1c(OC)cccc1OC)N(CCOC)CCOC.Cl (stereo not shown) [Example 7ah, ξ-2-[N-bis(2-methoxyethyl)amino]hexanoic acid, 2,6-dimethoxyphenyl ester hydrochloride (1:1) salt]",–,–,8 µmol/kg
"CCOCCN(CCOCC)[C@H](CC)C(=O)Oc1c(OC)cccc1OC [Example 7z, R-(+)-2-[N-bis(2-ethoxyethyl)amino]butyric acid, 2,6-dimethoxyphenyl ester hydrochloride (1:1) salt]",18,19,–
"COCCN(CCOC)C(C)C(=O)Oc1c(OC)cccc1OC (racemic) [Example 7f, (±)-2-[N-bis(2-methoxyethyl)amino]propionic acid, 2,6-dimethoxyphenyl ester hydrochloride (1:1) salt]",< 100,55,–
"CCN(CC)C(C)C(=O)Oc1c(OC)cc(C)cc1OC (racemic) [Example 7j, (±)-2-[diethylamino]propionic acid, 2,6-dimethoxy-4-methylphenyl ester hydrochloride (1:1) salt]",< 50,43,–
"CCOCCN(CCOCC)C(CC)C(=O)Oc1c(OC)cccc1OC (racemic) [Example 7l, (±)-2-[N-bis(2-ethoxyethyl)amino]butyric acid, 2,6-dimethoxyphenyl ester hydrochloride (1:1) salt]",~100,–,–
"COc1cc(C)cc(OC)c1OC(=O)C(C)N(C)Cc1ccccc1 (racemic) [Example 7g, (±)-2-[N-methylbenzylamino]propionic acid, 2,6-dimethoxy-4-methylphenyl ester hydrochloride (1:1) salt]",22,45,–
"COc1cc(C)cc(OC)c1OC(=O)[C@@H](C)N(C)Cc1ccccc1 [Example 7h, R-(+)-2-[N-methylbenzylamino]propionic acid, 2,6-dimethoxy-4-methylphenyl ester hydrochloride (1:1) salt]",27,56,–
"CCOCCN(CCOCC)[C@@H](CC)C(=O)Oc1c(OC)cccc1OC [Example 7aa, S-(−)-2-[N-bis(2-ethoxyethyl)amino]butyric acid, 2,6-dimethoxyphenyl ester hydrochloride (1:1) salt]",11,22,–
"COCCN(CCOC)C(CC(C)C)C(=O)Oc1c(OC)cc(C)cc1OC.Cl (racemic) [Example 7aj, (±)-2-[N-bis(2-methoxyethyl)amino]4-methylpentanoic acid, 2,6-dimethoxy-4-methylphenylester hydrochloride (1:1) salt]",–,–,convulsant
"CCOCCN(CCOCC)C(C)C(=O)Oc1c(OC)cccc1OC (single isomer, unassigned; (-)) [Example 7x, (−)-2-[N-bis(2-ethoxyethyl)amino]propionic acid, 2,6-dimethoxyphenyl ester hydrochloride (1:1) salt]",< 100,–,46 µmol/kg
"COCCN(C)C(C)C(=O)Oc1c(OC)cccc1OC.Cl (stereo not shown) [Example 7p, 2-[N-methyl-(2-methoxy)ethylamino]propionic acid, 2,6-dimethoxyphenyl ester hydrochloride (1:1) salt]",~100,–,72 µmol/kg
"COCCN(CCOC)C(C)C(=O)Oc1c(OC)cc(C)cc1OC (racemic) [Example 7e, (±)-2-[N-bis(2-methoxyethyl)amino]propionic acid, 2,6-dimethoxy-4-methylphenyl ester hydrochloride (1:1) salt]",< 100,52,–
"CCCC(C(=O)Oc1c(OC)cc(C)cc1OC)N(CCOC)CCOC.Cl (racemic) [Example 7af, (±)-2-[N-bis(2-methoxyethyl)amino]pentanoic acid, 2,6-dimethoxy-4-methylphenyl ester hydrochloride (1:1) salt]",–,–,34 µmol/kg
"(±)-2-[N-bis(2-methoxyethyl amino]-3-methylbutyric acid, 2,6-dimethoxy-4-methylphenylester hydrochloride (1:1) salt [Example 7al]",–,–,44 µmol/kg
"CCCCC(C(=O)Oc1c(OC)cccc1OC)N(CCOC)CCOC.Cl (stereo not shown) [Example 7ai, ξ-2-[N-bis(2-methoxyethyl)amino]hexanoic acid, 2,6-dimethoxyphenyl ester hydrochloride (1:1) salt]",–,–,47 µmol/kg
"CCCCC(C(=O)Oc1c(OC)cc(C)cc1OC)N(CCOC)CCOC.Cl (racemic) [Example 7ag, (±)-2-[N-bis(2-methoxyethyl)amino]hexanoic acid, 2,6-dimethoxy-4-methylphenyl ester hydrochloride (1:1) salt]",–,–,34 µmol/kg
"CCCCC(C(=O)Oc1c(OC)cccc1OC)N(CCOC)CCOC.Cl (racemic) [Example 7ad, (±)-2-[N-bis(2-methoxyethyl)amino]hexanoic acid, 2,6-dimethoxyphenyl ester hydrochloride (1:1) salt]",–,–,<12 µmol/kg
"CCC(C(=O)Oc1c(OC)cccc1OC)N(CC(C)OC)CC(C)OC.Cl (racemic) [Example 7ae, (±)-2-[N-bis(2-methoxypropyl)amino]butyric acid, 2,6-dimethoxyphenyl ester hydrochloride (1:1) salt]",–,–,27 µmol/kg
"COCCN(C)C(CC(C)C)C(=O)Oc1c(OC)cc(C)cc1OC.Cl (racemic) [Example 7ak, (±)-2-[N-(2-methoxyethyl)-N-methylamino]-4-methylpentanoic acid, 2,6-dimethoxy-4-methylphenylester hydrochloride (1:1) salt]",–,–,28 µmol/kg
